The values below come from a melting point compilation (Tetko et al.; mined from patent text by program, amines drawn as free bases though some values may be those of a salt).

Residues, ends and D or L forms follow the SMILES beside them. *: point of attachment. Tos = Cc1ccc(S(=O)(=O)*)cc1

Compound `ClCC1CN(Cc2ccccc2)CCN1Cc1ccccc1` (centres undefined) gave a melting point of 54 to 56 °C.

The compound `CCOC(=O)c1c2n(c3cc(Cl)c(Cl)cc3c1=O)CCS2` came in with a melting point of 255 to 257 °C. To `O=C1CC(c2cccc(OCc3ccccc3)c2)=Nc2ccc(N3CCCC3)cc21` belongs 320 to 322 °C; to `O=c1oc(-c2cccc(OC(F)F)c2)nc2ccccc12`, 84 to 87 °C; to `CS(=O)(=O)C(=[N+]=[N-])C(=O)CCc1ccccc1`, 52.5 to 54 °C. On to `Brc1cnn2ccc(N3CCNCC3)nc12`, for which the melting point was 108 to 109 °C. For the compound `CNC(=O)N1CC(Oc2ccc(C(F)(F)F)cc2)C1`, the melting point was in the range of 154 to 157 °C. As for `FCc1cccc(C#CCCc2nc3ccccc3s2)n1`, the melting point lay in the range of 74 to 76 °C. Take `COc1cc(/C=C/C(=O)Nc2ccccc2C(=O)O)ccc1OCCN1CCOCC1`: the melting point lay in the range of 195 to 201 °C.

In turn, `NC(=O)N(O)CCOCc1cccs1` showed a melting point of 91 to 92 °C. Take `C=C(C)CN1Cc2cc(Cl)cc3[nH]c(=O)n(c23)CC1C` (centres undefined): the melting point amounted to 175 °C.

For `CC(=O)Nc1ccc(S(=O)CC(=O)C23CC4CC(CC(C4)C2)C3)cc1` (centres undefined), the melting point is 174 to 176 °C. For the compound `O=S(=O)(Nc1ccccc1OCc1ccc2ccccc2n1)c1cccc(C(F)(F)F)c1`, the melting point is 154 to 155 °C.

For `COc1cccc(Nc2cc(-c3nnc(C)o3)ccn2)c1`, the melting point lay in the range of 192 to 193 °C.

`Cc1cc(=O)n2c3c(cc(C(O)(C(F)(F)F)C(F)(F)F)cc13)OC2` displayed a melting point of 262 to 264 °C.

Turning to `CCCCOC(=O)Nc1ccnc(-c2ccncc2)n1`, the melting point lay in the range of 180 to 182 °C. In the case of `CC(=O)Oc1ccc(Br)cc1Cc1cc(Cl)cc(Cc2cc(Br)ccc2O)c1OC(C)=O`, the melting point lay within 190 to 192 °C.

The compound `CCc1nn2c(-c3ccc(OC)cc3Cl)cccc2c1N(CC)CCCF` displayed a melting point of 76.6 to 79.6 °C. In turn, `O=C(NC(Cc1ccccc1)C(=O)C(F)F)c1ccccc1` (centres undefined) yielded a melting point of 136 °C. The compound `CSc1cccc(-c2ccccc2[N+](=O)[O-])c1` showed a melting point of 42 to 43 °C. On to `CC1(C)SCc2ccccc2C1=NO`, for which the melting point fell in the range of 83 to 84 °C. The same measure for `CC(c1oc2ccccc2c(=O)c1-c1ccccc1)n1nc(C#CC(C)(C)O)c2c(N)ncnc21` (centres undefined): 109 to 113 °C. In turn, `CCNC(=O)Cn1c(=O)c(=O)[nH]c2ccc3ccc(-n4c(C)ccc4C)cc3c21` gave a melting point of over 285 °C. Turning to `CCOC(=O)c1cc(CC#N)c(C)s1`, the melting point was in the range of 55 to 57 °C. With `CCOc1nc(N)nc2c1ncn2CCC(CO)CO`, the melting point was 150 to 152 °C. With `O=[N+]([O-])c1c(Cl)nc2ccccc2c1NCc1ccccn1`, the melting point is 179 to 182 °C.

For `Cc1cc(C)c(-n2[nH]c(Nc3ccc(Cl)cc3)cc2=O)c(C)c1N`, the melting point fell in the range of 236 to 237 °C.

Regarding `CN1CCc2c(O)ccc(Cl)c2CC1`, the melting point is 178 to 180 °C.

`NCCCC=CCCC(=O)O` had a melting point of 139 to 144 °C. `COc1ccc(S(=O)(=O)NCC2CCN(C[C@H]3COc4ccc(Cl)cc4O3)CC2)cc1` returned a melting point of 130 to 131 °C.

Turning to `CO[C@]1(c2cnc(S)s2)CCO[C@@H]1C` (racemic), the melting point was in the range of 126 to 127 °C. For `Cc1ccc(S(=O)(=O)N2CCC[C@H]2C(=O)N[C@@H](CCC(=O)O)C(=O)O)cc1` (Tos-Pro-Glu-OH), the melting point is 164 to 166 °C. `CCOCc1nc2c(N)nc3ccccc3c2n1CC1(O)CCOCC1` registered a melting point of 212 to 214 °C. In the case of `Nc1ncc(C#Cc2ccc(Cl)cc2)c(OC2CCC(=O)CC2)n1`, the melting point was 168 to 172 °C. `O=C(c1cccc2cc[nH]c12)N1CCN(c2ncccn2)CC1` returned a melting point of 194 to 197 °C. Regarding `COc1ccccc1Cc1ccc2[nH]c3cnn(C)c3c(=O)c2c1`, the melting point was found to be 255 °C.

In turn, `N#Cc1nc2cc(O)ccc2s1` returned a melting point of 194 °C. In turn, `CCCc1nc(-c2cccnc2)cnc1Cl` registered a melting point of 207 to 209 °C. With `OC(COc1cccc2ccccc12)CN1CCCC1` (centres undefined), the melting point lay in the range of 68 to 70 °C. Consider `CCN(CC)c1ccc(-n2c(C(F)(F)F)nn(C)c2=S)c(Cl)c1`, for which the melting point was in the range of 108 to 110 °C.

Take `CCCCCCCCCCCCCCCCCCNC(=O)c1ccccc1`: the melting point lay in the range of 85 to 87 °C. The same measure for `CC(=O)Nc1nc2c(NC(=O)c3ccc4cc(Br)ccc4c3)cccc2s1`: 242 °C; for `Cc1c(NC(=O)CC(C)(C)C)cc2c(c1C)OCC2c1ccc(C(C)C)cc1` (centres undefined): 177 to 178 °C. The compound `CN(C)CCCSC1=C(C#N)C(c2ccccn2)(c2ccccn2)C(=O)N1` came in with a melting point of 184 to 185 °C. `C[C@H](O)[C@@H](O)[C@@H](O)C(=O)CO`: the melting point lay within 158 to 160 °C. On to `CCN(S(=O)(=O)NC(=O)N1N=C(C)CC1c1ccccc1)S(=O)(=O)N(C)C` (centres undefined), for which the melting point lay in the range of 138 to 139 °C. To `CCCCCCCCc1ccc(N(c2ccc(CCCCCCCC)cc2)C2(c3ccc(N(C)C)cc3C)OC(=O)c3ccccc32)cc1` (centres undefined) belongs 172 to 174 °C. The same measure for `Cc1nc(-n2cc(C(=O)NCc3ccc(F)cc3)nn2)sc1C(=O)NCc1ccccc1`: 198 to 201 °C; for `CC(=O)N1CC(=O)N(CC(N)=O)C1(C)C`: 188 to 189 °C. With `Fc1cccc2c(OCCc3ccc(Oc4ccc(C(F)(F)F)cn4)cc3)ncnc12`, the melting point is 116 to 118 °C.

In turn, `CC1Cc2c(N)ccc(Cl)c2O1` (centres undefined) showed a melting point of 70 °C. To `CC1(Br)COc2ccc(C#N)cc21` (centres undefined) belongs 163 to 165 °C; to `Cc1cc2c(O)n(CCc3ccc(C(=O)N[C@@H](CCC(=O)O)C(=O)O)cc3)cnc-2n1`, 291 °C; to `CON=C(Cn1c(=O)ccc2ccccc21)c1ccc(N2CCCC2)cc1`, 169 to 171 °C. To `CN1C(=O)[C@H](NC(=O)CCc2ccc(Cl)cc2Cl)N=C(c2ccccc2N)c2cc(N)ccc21` belongs 188 to 189 °C; to `CN1C(=O)C2(CCCC2(C)C)c2ccccc21` (centres undefined), 99 to 101 °C; to `Cc1ccc2c(c1)C(=O)N(CCO[N+](=O)[O-])CO2`, 76 to 78 °C.

In turn, `Cc1oc(-c2ccco2)nc1COc1ccc(Cn2cc(CCC(=O)O)c(-c3ccc(F)cc3)n2)cc1` came in with a melting point of 125 to 126 °C. Compound `CC(C)(C)NNC(=O)c1ccccc1CO` registered a melting point of 116 to 118 °C. In turn, `ClCCCOc1ccc(-c2nc3ccccc3s2)cc1` yielded a melting point of 141 to 143 °C. `COC(=O)c1ccc(C(=N)NC(=O)OC(C)(C)C)cc1`: the melting point turned out to be 157 °C. Compound `CC(=O)OCCc1cc2c(s1)SCCC1CC(=O)NN=C21` (centres undefined) came in with a melting point of 106 to 108 °C. The same measure for `N#CCCNC(=S)C1=CC(CF)(CF)Oc2ccc(C(F)(F)F)cc21`: 105 to 106 °C; for `O=C(C=Cc1cccc(-c2ccc(O)cc2)c1)NO`: 127 to 128 °C; for `CNC(=O)Cc1cccc2c(C(C)C)nccc12`: 153 to 154 °C. On to `c1ccc(C(c2ccccc2)c2ccncc2)cc1`, for which the melting point lay within 124 to 126 °C.

Compound `CC(C)C(NC(=O)Cc1ccc(-c2ccccc2)cc1)C(=O)Nc1n[nH]c(=S)s1` (centres undefined) yielded a melting point of 232 to 236 °C. As for `C=Cc1cc(O)cc2nc(-c3ccc(OP(=O)(OCC)OCC)c(F)c3)oc12`, the melting point was 134 to 136 °C. `O=C1CCC(c2ccccc2O)=NN1` returned a melting point of 211 to 212 °C.

`NC(=O)COC(=O)c1c(Cl)cccc1Cl` yielded a melting point of 114 to 116 °C. In turn, `N#CC=Cc1ccc(N)cc1` had a melting point of 109 to 110 °C. In turn, `CC(=O)OC1CCC2(C)C(CCC3=C4C(=O)CC(C(C)CCCC(C)(C)O)C4(C)CCC32)C1` (centres undefined) registered a melting point of 151 to 152 °C. `CNC(=O)N1CCC(CN2CCC(NC(=O)c3cc(Cl)c(N)cc3OC)CC2)CC1` showed a melting point of 202 to 204 °C. In turn, `O=c1oc2ccc(OC3CCCCO3)cc2s1` (centres undefined) had a melting point of 61 to 63 °C. `Cc1nc(N2C[C@@H](O)CC2=O)sc1C(=O)NCc1ccccc1`: the melting point was 203 to 204 °C.

`CC(Oc1ncn(-c2ccc(Br)cc2)n1)C(N)=O` (centres undefined) displayed a melting point of 179 to 181 °C. Turning to `O=C(NC1CC1)c1ccccc1C(c1ccc(O)cc1)c1ccc(O)cc1`, the melting point was 221 to 226 °C. To `CC(C)COC(=O)Nc1cc(Cl)cc(Cl)c1` belongs 75 °C; to `C#C[C@](C)(O)CCc1c(C)c(OC(C)=O)c(C)c(C)c1OC(C)=O`, 96 to 102 °C; to `CC1Cc2cc(-n3ccnc3)ccc2C1=O` (centres undefined), 103 to 106 °C.

In turn, `COc1ccc(C(=O)c2c(CO[N+](=O)[O-])[nH]c(=O)n2C(C)=O)cc1` registered a melting point of 165 to 166 °C.

Consider `CC(=O)NCC1CN(c2ccc(N3CCN(C=O)CC3)c(F)c2)C(=O)O1` (centres undefined), for which the melting point fell in the range of 190 to 194 °C. Compound `CC1(C)Cc2cc([N+](=O)[O-])cc(O)c2O1` came in with a melting point of 96 to 97 °C. To `COc1cccc2c(=O)c3ccc(SC)cc3oc12` belongs 201 to 203 °C; to `CC(C)(C)OC(=O)Nc1cc(N2CCC(OC3CCCCO3)CC2)c(-c2ccc(F)cc2)cc1[N+](=O)[O-]` (racemic), 144 to 146 °C. The compound `CCN1c2ccccc2Sc2ccccc21` came in with a melting point of 103 to 104 °C. To `COc1ccc(C=Cc2ccc(C)cc2)c(Cl)c1` belongs 144 to 145 °C; to `c1ccc(C(CCN2CC3CCC(CC3)C2)(c2ccccc2)c2nnn[nH]2)cc1`, 284 to 286 °C; to `Cc1cc(C)cc(-c2cc3cnc(N)nc3nc2NC(=O)NC(C)(C)C)c1`, 180 to 182 °C. As for `Cc1nc(-c2ccc(O)cc2)[nH]c1Cl`, the melting point was in the range of 226 to 228 °C. `CN1CCN(c2ccc(O)c3c2C[C@H](NC(=O)c2ccc(N4CCOCC4)cc2)CC3)CC1` came in with a melting point of 84 to 88 °C. The same measure for `C=CC1(c2ccccc2)OC(C(=O)OC)Oc2ccc(Cl)cc21` (centres undefined): 78 °C; for `O=[N+]([O-])c1ccc(NN=C(c2ccccc2)c2ccc(O)cc2)c([N+](=O)[O-])c1`: 224 to 225 °C. The same measure for `COc1ccc(C2(C#Cc3cccc(-c4nnc(C)s4)c3)CCCC(=O)C2)cc1OC1CCCC1` (centres undefined): 97 to 99 °C.
